We go through 18 compounds from patent EP4631940A1, “COMPOUND TARGETING PAN-KRAS PROTEIN DEGRADATION AGENT AND USE THEREOF” (Betta Pharmaceuticals Co., Ltd., priority 2022, dated 2024).

In general, IC50 refers to the point on the concentration scale where inhibition reaches its midpoint.

One experiment has as its system SW620. Put plainly: Cell proliferation experiment (CellTiter-Glo). Type of experiment: cell-based. The note with it: read-out: IC50(nM) SW620. For orientation: ATP-based viability assays read luminescence as a measure of living cells.
The subject of another experiment is AGS. Nature of the experiment: Cell proliferation experiment (CellTiter-Glo). The class given is cell-based. The note with it: read-out: IC50(nM) AGS.
The target in the next experiment is KRAS G12D (Homo sapiens, UniProt P01116, G12D).
[1] abbreviates: SW620, KRAS mutation type G12V, 96 h incubation.
The mark [2] stands for this setting: AGS, KRAS mutation type G12D, 96 h incubation.

Read-outs that look alike come from different tables or passages of the source.

As for `C=C1CN2[C@H](COC(=O)N3CCC4(CC3)CC(C(=O)N[C@H](C(=O)N3C[C@H](O)C[C@H]3C(=O)N[C@@H](C)c3ccc(-c5scnc5C)cc3)C(C)(C)C)C4)CC[C@@]2(COc2nc(N3CCC[C@@](C)(O)C3)c3cnc(-c4cc(O)cc5ccc(F)c(CC)c45)c(F)c3n2)C1` [Compound 140], the IC50 in the experiment with SW620 came out at 167 nM; in the experiment on AGS, 28 nM.
For `CCc1c(F)ccc2cc(O)cc(-c3ncc4c(N5CCC[C@@](C)(O)C5)nc(OCC5(CN6CCC(c7cc([C@H](C(=O)N8C[C@H](O)C[C@H]8C(=O)N[C@@H](C)c8ccc(-c9scnc9C)cc8)C(C)C)on7)CC6)CC5)nc4c3F)c12` [Compound 147], on KRAS G12D, the DC50 was determined as 24 nM and the “Dmax (%)” value was 95%. For the same compound, in the experiment on AGS, the IC50 came out at 16 nM.
For `CCc1c(F)ccc2cc(O)cc(-c3ncc4c(N5CCC[C@@](C)(O)C5)nc(OCC5(CN6CCN(C(=O)c7cnc(-c8cn([C@H](C(=O)N9C[C@H](O)C[C@H]9C(=O)N[C@@H](C)c9ccc(-c%10scnc%10C)cc9)C(C)C)nn8)cn7)CC6)CC5)nc4c3F)c12` [Compound 173], the IC50 with SW620 (setting [1]) turned out to be 35 nM; in the experiment with AGS (setting [2]), 6 nM.
For `CCc1c(F)ccc2cc(O)cc(-c3ncc4c(N5CCC[C@@](C)(O)C5)nc(OCC5(CN6CCN(CCOc7cc([C@H](C(=O)N8C[C@H](O)C[C@H]8C(=O)N[C@@H](C)c8ccc(-c9scnc9C)cc8)C(C)C)on7)CC6)CC5)nc4c3F)c12` [Compound 175] the same measures were 70 nM and 26 nM.
For `CCc1c(F)ccc2cc(O)cc(-c3ncc4c(N5CCC[C@@](C)(O)C5)nc(OCC5(CN6CCC(Oc7cnc(-c8cn([C@H](C(=O)N9C[C@H](O)C[C@H]9C(=O)N[C@@H](CC(=O)NC)c9ccc(-c%10scnc%10C)cc9)C(C)C)nn8)cn7)CC6)CC5)nc4c3F)c12` [Compound 190, (2S,4R)-1-((S)-2-(4-(5-(1-((((7-(8-ethyl-7-fluoro-3-hydroxynaphthalen-1-yl)-8-fluoro-4-(((R)-3-hydroxy-3-methylpiperidin-1-yl)pyrido[4,3-d]pyrimidin-2-yl)oxy)methyl)cyclopropyl)methyl)piperidin-4-yl)oxy)-2-ylpyrazin-1H-1,2,3-triazol-1-yl)-3-methylbutanoyl)-4-hydroxy-N-((S)-3-(methylamino)-1-(4-(4-methylthiazol-5-yl)phenyl)-3-oxopropyl)pyrrolidine-2-carboxamide], the values for the IC50 with SW620 (setting [1]) and in the experiment with AGS (setting [2]) were 38 nM and 11 nM, respectively.
As to `CCc1c(F)ccc2cc(O)cc(-c3ncc4c(N5CCC[C@@](C)(O)C5)nc(OCC5(CN6CCC(N7CCC(c8cnc(-c9cn([C@H](C(=O)N%10C[C@H](O)C[C@H]%10C(=O)N[C@@H](C)c%10ccc(-c%11scnc%11C)cc%10)C(C)C)nn9)cn8)CC7)CC6)CC5)nc4c3F)c12` [Compound 195], the IC50 with SW620 (setting [1]) turned out to be 18 nM; in the experiment with AGS (setting [2]) it was 4.4 nM.
With `CCc1c(F)ccc2cc(O)cc(-c3ncc4c(N5CCC[C@@](C)(O)C5)nc(OCC5(CN6CCC(N7CCN(c8cnc(-c9cn([C@H](C(=O)N%10C[C@H](O)C[C@H]%10C(=O)N[C@@H](C)c%10ccc(-c%11scnc%11C)cc%10)C(C)C)nn9)cn8)CC7)CC6)CC5)nc4c3F)c12` [Compound 196, (2S,4R)-1-((S)-2-(4-(5-(4-(1-(((7-(8-ethyl-7-fluoro-3-hydroxynaphthalen-1-yl)-8-fluoro-4-(((R)-3-hydroxy-3-methylpiperidin-1-yl)pyrido[4,3-d]pyrimidin-2-yl)oxy)methyl)cyclopropyl)methyl)piperidin-4-yl)piperazin-1-yl)pyrazin-2-yl)-1H-1,2,3-triazol-1-yl)-3-methylbutanoyl)-4-hydroxy-N-(((S)-1-(4-(4-methylthiazol-5-yl)phenyl)ethyl)pyrrolidine-2-carboxamide], the results for the IC50 in the experiment with SW620 (setting [1]) and in the experiment with AGS (setting [2]) were 15 nM and 4 nM, respectively.
For the compound `CCc1c(F)ccc2cc(O)cc(-c3ncc4c(N5CCC[C@@](C)(O)C5)nc(OCC5(CN6CCN(C7CCN(c8cnc(-c9cn([C@H](C(=O)N%10C[C@H](O)C[C@H]%10C(=O)N[C@@H](C)c%10ccc(-c%11scnc%11C)cc%10)C(C)C)nn9)cn8)CC7)CC6)CC5)nc4c3F)c12` [Compound 197], the half-inhibitory concentration (IC50) with SW620 (setting [1]) was found to be 32 nM; with AGS (setting [2]), 6.1 nM.
Consider `CCc1c(F)ccc2cc(O)cc(-c3ncc4c(N5CCC[C@@](C)(O)C5)nc(OCC5(CN6CCC(OCc7cnc(-c8cn([C@H](C(=O)N9C[C@H](O)C[C@H]9C(=O)N[C@@H](C)c9ccc(-c%10scnc%10C)cc9)C(C)C)nn8)cn7)CC6)CC5)nc4c3F)c12` [Compound 198], for which the IC50 came to 21 nM in the experiment with SW620 (setting [1]) and 6.9 nM with AGS (setting [2]).
`CCc1c(F)ccc2cccc(-c3ncc4c(N5CCC[C@@](C)(O)C5)nc(OCC5(CN6CCC(Oc7cnc(-c8cn([C@H](C(=O)N9C[C@H](O)C[C@H]9C(=O)N[C@@H](C)c9ccc(-c%10scnc%10C)cc9)C(C)C)nn8)cn7)CC6)CC5)nc4c3F)c12` [Compound 201]: the IC50 in the experiment with SW620 (setting [1]) was determined as 46 nM; in the experiment on AGS (setting [2]), 13 nM.
In the case of `CCc1c(F)ccc2cc(O)cc(-c3ncc4c(N5CCCC(C)(O)C5)nc(OCC5(CN6CCN(Cc7cc(-c8cn([C@H](C(=O)N9C[C@H](O)C[C@H]9C(=O)N[C@@H](C)c9ccc(-c%10scnc%10C)cc9)C(C)C)nn8)n(C)n7)CC6)CC5)nc4c3F)c12` (stereo partly drawn) [Compound 202], the results for the IC50 in the experiment on SW620 (setting [1]) and in the experiment with AGS (setting [2]) were 54 nM and 15 nM, respectively.
As to “(2S,4R)-1-((2S)-2-(4-(5-(1-(4-((1-(((7-(8-ethyl-7-fluoro-3-hydroxynaphthalen-1-yl)-8-fluoro-4-(( R)-3-hydroxy-3-methylpiperidin-1-yl)pyrido[4,3-d]pyrimidin-2-yl)oxy)methyl)cyclopropyl)meth yl)piperidin-1-yl)ethyl)piperidin-2-yl)-1H-1,2,3-triazol-1-yl)-3-methylbutanoyl)-4-hydroxy-N-(( S)-1-(4-(4-methylthiazol-5-yl)phenyl)ethyl)pyrrolidine-2-carboxamide [Compound 194]”, the IC50 was 26 nM in the experiment on SW620 and 5.5 nM in the experiment with AGS.
For “(2S,4R)-1-((S)-2-(4-(5-(2-(4-((1-((7-(8-ethyl-7-fluoro-3-hydroxynaphthalen-1-yl)-8-fluoro-4-((R )-3-hydroxy-3-methylpiperidin-1-yl)pyrido[4,3-d]pyrimidin-2-yl)oxy)methyl)cyclopropyl)methy l)piperazin-1-yl)-2-oxyethyl)pyrazin-2-yl)-1H-1,2,3-triazol-1-yl)-3-methylbutanoyl)-4-hydroxy-N-((S)-1-(4-(4-methylthiazol-5-yl)phenyl)ethyl)pyrrolidine-2-carboxamide [Compound 174]”, the IC50 with SW620 (setting [1]) was determined as 59 nM; with AGS (setting [2]) it was 8 nM.
Consider “(2S,4R)-1-((S)-2-(4-(5-(2-(4-((1-(((7-(8-ethyl-7-fluoro-3-hydroxynaphthalen-1-yl)-8-fluoro-4-(( R)-3-hydroxy-3-methylpiperidin-1-yl)pyrido[4,3-d]pyrimidin-2-yl)oxy)methyl)cyclopropyl)meth yl)piperazin-1-yl)ethyl)pyrazin-2-yl)-1H-1,2,3-triazol-1-yl)-3-methylbutanoyl)-4-hydroxy-N-((S )-1-(4-(4-methylthiazol-5-yl)phenyl)ethyl)pyrrolidine-2-carboxamide [Compound 191]”, for which the half-maximal inhibitory concentration (IC50) in the experiment with SW620 turned out to be 12 nM; in the experiment with AGS, 3.1 nM.
For the compound “(2S,4R)-1-((S)-2-(4-(5-(3-(1-(((7-(8-ethyl-7-fluoro-3-hydroxynaphthalen-1-yl)-8-fluoro-4-((R)-3 -hydroxy-3-methylpiperidin-1-yl)pyrido[4,3-d]pyrimidin-2-yl)-3-methylbutanoyl)-4-hydroxy-N-((S)-1-(4-(4-methylthiazol-5-yl)phenyl)ethyl)pyrrolidine-2-carboxamide [Compound 200]”, the IC50 in the experiment with SW620 (setting [1]) amounted to 20 nM; in the experiment with AGS (setting [2]) it was 4.6 nM.
As to “(2S,4R)-1-((S)-2-(4-(5-(3-(4-((1-((7-(8-ethyl-7-fluoro-3-hydroxynaphthalen-1-yl)-8-fluoro-4-((R )-3-hydroxy-3-methylpiperidin-1-yl)pyrido[4,3-d]pyrimidin-2-yl)oxy)methyl)cyclopropyl)methy l)piperazin-1-yl)azetidin-1-yl)pyrazin-2-yl)-1H-1,2,3-triazol-1-yl)-3-methylbutanoyl)-4-hydroxy -N-((R)-2-hydroxy-1-(4-(4-methylthiazol-5-yl)phenyl)ethyl)pyrrolidine-2-carboxamide [Compound 192]”, the results for the IC50 in the experiment with SW620 (setting [1]) and in the experiment with AGS (setting [2]) were 17 nM and 3.2 nM, respectively.
Take “(2S,4R)-1-((S)-2-(4-(5-((1-((1-(((7-(8-ethyl-7-fluoro-3-hydroxynaphthalen-1-yl)-8-fluoro-4-((R)-3-hydroxy-3-methylpiperidin-1-yl)pyrido[4,3-d]pyrimidin-2-yl)oxy)methyl)cyclopropyl)methyl) piperidin-4-yl)methyl)piperazin-2-yl)-1H-1,2,3-triazol-1-yl)-3-methylbutanoyl)-4-hydroxy-N-((S )-1-(4-(4-methylthiazol-5-yl)phenyl)ethyl)pyrrolidine-2-carboxamide [Compound 193]”: the IC50 with SW620 came out at 24 nM; with AGS, 7.3 nM.
“(7-(8-ethyl-7-fluoro-3-hydroxynaphthalen-1-yl)-8-fluoro-4-(R)-3-hydroxy-3-methylpiperidin-1-y l)pyrido[4,3-d]pyrimidin-2-yl)oxy)methyl)-6-methylenehexahydro-1H-pyrrolizin-3-yl)methyl ((3-(1-((S)-1-(2S,4R)-4-hydroxy-2-(S)-1-(4-methylthiazol-5-yl)phenyl)ethyl)carbamoyl)pyrrolidi n-1-yl)-3-methyl-1-oxobutan-2-yl)-1H-1,2,3-triazol-4-yl)bicyclo[1.1.1]pentan-1-yl)methyl)carba mate [Compound 126]”: at KRAS G12D, the DC50 was found to be 23 nM and the “Dmax (%)” value is given as 95%. Besides, the IC50 in the experiment on SW620 came out at 246 nM. In addition, the concentration for half-maximal inhibition (IC50) in the experiment on AGS was 32 nM.
